Data from article PMC4015918, “Conjugation to a SMAC mimetic potentiates sigma-2 ligand induced tumor cell death in ovarian cancer” (Molecular Cancer, 2014).

Key:
Assay type in all cases: cell-based
[1] = test system: ovarian cancer cell lines (SKOV3, OVCAR3, HEY A8, HEY A8 MDR); assay: Cell viability (CellTiter-Glo) in a panel of four ovarian cancer cell lines; settings: increasing doses, 18 hours
Procedure: (A) SKOV3, (B) OVCAR3 (C) HEY A8 and (D) HEY A8 MDR cells were treated with increasing doses of SW43, SW IV-52, SW43 plus SW IV-52, and SW IV-134 for 18 hours. Cell viability was determined by CellTiter-Glo assays [p < 0.015 (A), NS (B), p < 0.017 (C), p < 0.034 (D), one-way ANOVA].
Cells (1 × 10^4) were seeded into 96 well plates. Treatment as described in the figure legends was initiated the following day. Cell viability was determined 18 hours after treatment using CellTiter-Glo Luminiscent Viability Assay (Promega, Madison, WI). Data were recorded with a SpectraMax Gemini microplate spectrofluorometer, Molecular Devices (Silicon Valley, CA).

cIAP-1 and cIAP-2 = assay: Western blot for cIAP-1 and cIAP-2 levels; settings: 10 μM
Procedure: (§1) Figure 4 SW IV-134 engages in SMAC-dependent pathway activation. (A) SKOV3 cells were treated with vehicle only (Ctrl.), SW43 (10 μM), and SW IV-134 (10 μM) for 4 hours and cell lysates were subjected to Western blot analysis using antibodies against XIAP, cIAP-1, cIAP-2, NF-қB and NIK. While XIAP seems unaffected under the conditions used, cIAP-1 and cIAP-2 proteins are readily undetectable shortly post treatment. SW IV-134 treatment also leads to accumulation of NF-қB inducing kinase (NIK) and activation of NF-қB pathway. (B) SKOV3 cells were treated with SW IV-134 at the indicated doses either alone or in the presence of proteasome inhibitor MG132 (20 μM) for 18 hours. […] Cell viability was determined as described in the experimental methods (p < 0.011, Student’s t-test).
(§2) Cells were lysed in radioimmunoprecipitation assay buffer [50 mM Tris, 150 mM sodium chloride, 1.0 mM EDTA, 1% Nonidet P40, and 0.25% SDS (pH 7.0)], supplemented with complete protease inhibitor cocktail (Roche, Mannheim) and phosphatase inhibitor cocktail 1 (Sigma Chemical Co., St. Louis, MO). The protein concentration was determined using a BioRad Dc protein assay kit (Bio-Rad Laboratories, Hercules, CA). Lysates containing 30 μg of protein were run on a 12% polyacrylamide gel and transferred to a PVDF membrane (Bio-Rad Laboratories, Hercules, CA). […]

Hey A8 cells = assay: Caspase-Glo caspase 3, 8 and 9 activity in Hey A8 cells; settings: 24 hours
Procedure: Caspase 3, 8 and 9 activities were measured using Caspase-Glo® Assay Systems according to the manufacturer’s instructions (Promega, Madison, WI). Briefly, the assay systems are based on caspase-specific substrates, which are activated by cleavage, resulting in caspase specific luminescence signals. HeyA8 cells were plated at a density of 1 × 10^4 in white 96 well, clear bottom plates for 24 hours before treatment. Cells were treated with different concentrations of SW IV-134. Caspase 3, 8 and 9 assays were performed by adding 100 μl of caspase reagents to each well. The contents were mixed using a plate shaker for 30 seconds and incubated at room temperature for 90 minutes. Luminescence signal was measured using a multi-mode microplate reader (BioTek, Winooski, VT).
Supplementary file 1476-4598-13-50-S3.pdf: Additional file 3: Figure S2 SW IV-134 induces caspase activation in ovarian cancer. Caspase 3, 8 and 9 activities were measured in Hey A8 cells using Caspase-Glo® Assay Systems (Promega). Hey A8 cells were treated with SW IV-134 at indicated drug concentrations for 24 hours. Caspase assays were performed by adding 100 μl lysis buffer containing the substrates for the respective caspase to be assayed. Luminescence signal intensities were recorded using a multi-mode microplate reader (BioTek). […] (A) caspase 8; (B) caspase 9; and (C) caspase 3. p < 0.001 for all analyses, one-way ANOVA. […]

XIAP = target: T1, XIAP (Homo sapiens, UniProt P98170); assay: Western blot for XIAP levels; settings: SKOV3 cells, 10 μM, 4 hours
T1 construct: endogenous in cells; host or cells: SKOV3
Procedure: as §1, §2

SKOV3 cells = assay: Annexin V binding (apoptosis), flow cytometry; settings: SKOV3 cells, 3, 6 and 10 μM, 16 hours
Procedure: SKOV3 cells were treated with different concentrations of SW IV-134 (3 μM, 6 μM, and 10 μM) for 16 hours. Staining was performed using the Annexin V Apoptosis Detection Kit (BioLegend, San Diego, CA) according to the manufacturer’s instructions. The apoptosis rate was determined by flow cytometry (FACSCalibur, BD Biosciences, San Jose, CA).
Supplementary file 1476-4598-13-50-S4.pdf: Additional file 4: Figure S3 Flow cytometric determination of apoptosis. SKOV3 cells were treated with increasing concentrations of SW IV-134. Untreated cells served as a negative staining control. The cells were then assessed for apoptosis induction by flow cytometry following staining with propidium iodide/Annexin V. Click here for file

T1 sequence (P98170 whole entry): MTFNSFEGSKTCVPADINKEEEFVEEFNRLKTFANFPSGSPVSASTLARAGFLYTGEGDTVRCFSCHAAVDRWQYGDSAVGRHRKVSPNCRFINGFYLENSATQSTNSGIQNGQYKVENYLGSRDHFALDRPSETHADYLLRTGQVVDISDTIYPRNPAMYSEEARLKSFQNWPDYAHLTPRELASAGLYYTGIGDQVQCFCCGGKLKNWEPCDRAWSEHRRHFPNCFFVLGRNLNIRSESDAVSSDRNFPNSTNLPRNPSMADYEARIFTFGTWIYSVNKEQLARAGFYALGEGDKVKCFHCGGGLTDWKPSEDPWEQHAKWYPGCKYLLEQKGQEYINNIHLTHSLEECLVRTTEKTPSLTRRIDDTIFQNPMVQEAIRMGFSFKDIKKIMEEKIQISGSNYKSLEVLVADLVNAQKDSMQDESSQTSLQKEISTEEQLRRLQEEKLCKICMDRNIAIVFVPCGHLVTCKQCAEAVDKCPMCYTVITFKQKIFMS

SMILES	Killing activity (cell viability) [1]	cIAP-1 protein level (cIAP-1 and cIAP-2; SKOV3, Hey A8 and Hey A8 MDR cells, 2 hours)	cIAP-1 and cIAP-2 protein levels (cIAP-1 and cIAP-2; SKOV3 cells, 4 hours)	Caspase 3, 8 and 9 activities (fold over DMSO control) (Hey A8 cells)	XIAP levels (XIAP)	Annexin V binding (SKOV3 cells)
COc1ccc(C)cc1NC(=O)OC1CC2CCCC(C1)N2CCCCCCCCCCN (stereo not shown) [SW43, reference compound]	effective against different ovarian cancer cell lines					
COc1ccc(C)cc1NC(=O)OC1CC2CCCC(C1)N2CCCCCCCCCCN[C@@H](C)C(=O)N[C@H](C(=O)N1CCC[C@H]1C(=O)N[C@@H]1CCCc2ccccc21)C(C)(C)C (stereo partly shown) [SW IV-134]	greater cytotoxicity	readily undetectable shortly after treatment	rapid loss of both cIAP-1 and cIAP-2	significant increases in caspase activities	without affecting the XIAP levels	increased Annexin V binding relative to the untreated control cells in a dose dependent manner
